From US20240417410A1, “TRICYCLIC COMPOUNDS FOR THE TREATMENT OF CANCER” (Hoffmann-La Roche Inc., priority 2023, published 2024)
Like-named read-outs stand apart in the source and are kept apart here.

Assays:
Test in all cases: Cell proliferation, CTG 3D, 7 d
Assay type in all cases: cell-based
Calu-6 = settings: Homo sapiens
Protocol: (§1) On Day-1, cells were plated in 384-well round-bottom ultra-low adhesion plates (cat. Corning 3830, with cell density adjusted according to Table 3. The assay plate was then centrifuged at 1000 rpm for 1 minute to ensure even distribution of cells. The plate was incubated at 37° C. in a 5% CO2 atmosphere (It is worth noting that for SW1271 cell plate, it needs to be incubated in an incubator without additional CO2).
(§2) On Day 0, Example 24 or A122 was added to each well using a Tecan HP D300E dispenser, with a 3-fold dilution across 9 doses. The final concentration of DMSO was normalized to 0.2%. The assay plate was then centrifuged at 1000 rpm for 1 minute and incubated for 7 days.
(§3) On Day 7, CellTiter-Glo (CTG) 3D reagent (Promega G9683) was dispensed into each well of a 384-well plate using a multi-drop dispenser (Thermo Scientific 66413). A liquid handling automation workstation (Bravo with a 384-well head) was used to mix the CTG reagents. Plates were left on a shaker for 30 minutes at 450 rpm, shielded from light.
(§4) For data analysis, the XL-fit software (Supplier: ID Business Solutions Ltd., Software version: XL fit 5.0) was utilized. The percentage of inhibition was calculated using the formula: Inhibition %=(Max-Sample value)/(Max-Min)×100. Curve fitting was performed as follows: For complete dose-response curves, the relative IC50 was reported from the fit. For incomplete curves, if minimal inhibition was greater than 50%, an IC50 less than the lowest compound concentration was reported. If minimal inhibition was between 20% and 50%, the bottom was locked at 0% and the IC50 was reported. If maximal inhibition was less than 50%, an IC50 greater than the highest compound concentration was reported.

LoVo = settings: Homo sapiens
Protocol: as §1, §2, §3, §4

PA-1 = settings: Homo sapiens; PA-1, NRAS (p.G12D)
Protocol: as §1, §2, §3, §4

HT1080 = settings: Homo sapiens, HT-1080
Protocol: as §1, §2, §3, §4

SK-LU-1 = settings: Homo sapiens; SK-LU-1, KRAS (G12D)
Protocol: as §1, §2, §3, §4

AsPc-1 = settings: Homo sapiens, ASPC1; AsPc-1, KRAS (G12D)
Protocol: as §1, §2, §3, §4

SW 480 = settings: Homo sapiens, SW480; SW 480, KRAS (G12V)
Protocol: as §1, §2, §3, §4

RKN = settings: Homo sapiens, KRAS (G12V)
Protocol: as §1, §2, §3, §4

NCI-H1573 = settings: Homo sapiens
Protocol: as §1, §2, §3, §4

NCI-H1299 = settings: Homo sapiens
Protocol: as §1, §2, §3, §4

NCI-H441 = settings: Homo sapiens; NCI-H441, KRAS (G12V)
Protocol: as §1, §2, §3, §4

KLE = settings: Homo sapiens, KRAS (WT ampl)
Protocol: as §1, §2, §3, §4

NCI-H2122 = settings: Homo sapiens; NCI-H2122, KRAS (G12C)
Protocol: as §1, §2, §3, §4

KMS26 = settings: Homo sapiens, KMS-26; KMS26, KRAS (WT ampl)
Protocol: as §1, §2, §3, §4

NCI-H650 = settings: Homo sapiens
Protocol: as §1, §2, §3, §4

GA-10 = settings: Homo sapiens; GA-10, NRAS (p.G12V)
Protocol: as §1, §2, §3, §4

NOMO-1 = settings: Homo sapiens
Protocol: as §1, §2, §3, §4

MOLP8 = settings: Homo sapiens, MOLP-8
Protocol: as §1, §2, §3, §4

DV-90 = settings: Homo sapiens
Protocol: as §1, §2, §3, §4

SJSA-1 = settings: Homo sapiens
Protocol: as §1, §2, §3, §4

T84 = settings: Homo sapiens
Protocol: as §1, §2, §3, §4

BEN = settings: Homo sapiens, KRAS (WT ampl)
Protocol: as §1, §2, §3, §4

PSN-1 = settings: Homo sapiens, PSN1
Protocol: as §1, §2, §3, §4

HuT 78 = settings: Homo sapiens, HuT78
Protocol: as §1, §2, §3, §4

CAL-62 = settings: Homo sapiens
Protocol: as §1, §2, §3, §4

HepG2 = settings: Homo sapiens
Protocol: as §1, §2, §3, §4

SW 1990 = settings: Homo sapiens, SW1990; SW 1990, KRAS (G12D)
Protocol: as §1, §2, §3, §4

NCI-H2444 = settings: Homo sapiens; NCI-H2444, KRAS (G12V)
Protocol: as §1, §2, §3, §4

Row | Compound | IC50 (PA-1) [nM] | IC50 (SK-LU-1) [nM] | IC50 (AsPc-1) [nM] | IC50 (SW 480) [nM] | IC50 (RKN) [nM] | IC50 (NCI-H441) [nM] | IC50 (KLE) [nM] | IC50 (NCI-H2122) [nM] | IC50 (KMS26) [nM] | IC50 (NCI-H650) [nM] | IC50 (GA-10) [nM] | IC50 (BEN) [nM] | IC50 (SW 1990) [nM] | IC50 (NCI-H2444) [nM] | further results
1 | CO[C@@H](C)c1ncc(N2CCN(C)CC2)cc1-c1c2c3cc(cc4c3n1CCC4)-c1csc(n1)C[C@H](NC(=O)[C@H]1[C@H](C)[C@@H]1C)C(=O)N1CCC[C@H](N1)C(=O)OCC(C)(C)C2 (atropisomer, axis not shown; (M)) [Example 24, (1r,2R,3S)-N-[(7S,13S)-(20M)-20-[2-[(1S)-1-methoxyethyl]-5-(4-methylpiperazin-1-yl)-3-pyridyl]-17,17-dimethyl-8,14-dioxo-15-oxa-4-thia-9,21,30,31-tetrazahexacyclo[23.3.1.1^2,5.1^9,13.0^19,27.0^21,26]hentriaconta-1 (28),2,5 (31), 19,25 (29),26-hexaen-7-yl]-2,3-dimethyl-cyclopropanecarboxamide] | 0.46 | 0.5 | 0.65 | 1.2 | 0.045 | 0.25 | 100 | 0.39 | 50 | 2.3 | 1000 | 40 | 1.6 | 0.17 | IC50 (Calu-6; Calu-6, KRAS (Q61K), read-out: IC50): 0.65 nM; IC50 (LoVo; KRAS (G13D), read-out: IC50): 0.55 nM; IC50 (HT1080; HT1080, NRAS (p.Q61K), read-out: IC50): 0.36 nM; IC50 (NCI-H1573; NCI-H1573, KRAS (G12A), read-out: IC50): 0.82 nM; IC50 (NCI-H1299; NCI-H1299, NRAS (p.Q61K), read-out: IC50): 0.93 nM; IC50 (NOMO-1; NOMO-1, KRAS (G13D), read-out: IC50): 0.47 nM; IC50 (MOLP8; MOLP8, NRAS (p.Q61L), read-out: IC50): 11 nM; IC50 (DV-90; DV-90, KRAS (G13D), read-out: IC50): 3.9 nM; IC50 (SJSA-1; SJSA-1, KRAS (Q61H), read-out: IC50): 2.6 nM; IC50 (T84; T84, KRAS (G13D), read-out: IC50): 100 nM; IC50 (PSN-1; PSN-1, KRAS (G12R), read-out: IC50): 0.85 nM; IC50 (HuT 78; HuT 78, NRAS (p.Q61K), read-out: IC50): 0.3 nM; IC50 (CAL-62; CAL-62, KRAS (G12R), read-out: IC50): 1.1 nM; IC50 (HepG2; HepG2, NRAS (p.Q61L), read-out: IC50): 2.1 nM
2 | CCn1c(-c2cc(N3CCN(C)CC3)cnc2[C@H](C)OC)c2c3cc(ccc31)-c1csc(n1)C[C@H](NC(=O)[C@H]1C[C@@H]1C)C(=O)N1CCC[C@H](N1)C(=O)OCC(C)(C)O2 [Example A122, reference compound] | 0.42 | 0.56 | 0.55 | 2 | 0.066 | 0.49 | 100 | 0.62 | 48 | 9.6 | 1000 | 43 | 1.5 | 0.29 | IC50 (Calu-6; Calu-6): 1.3 nM; IC50 (LoVo): 0.36 nM; IC50 (HT1080): 0.49 nM; IC50 (NCI-H1573; NCI-H1573): 1.2 nM; IC50 (NCI-H1299; NCI-H1299): 1.5 nM; IC50 (NOMO-1; NOMO-1): 0.86 nM; IC50 (MOLP8): 22 nM; IC50 (DV-90; DV-90): 4.7 nM; IC50 (SJSA-1; SJSA-1): 3.1 nM; IC50 (T84; T84): 100 nM; IC50 (PSN-1): 1.2 nM; IC50 (HuT 78): 0.55 nM; IC50 (CAL-62; CAL-62): 8.8 nM; IC50 (HepG2; HepG2): 5.5 nM
